Test: Sensory evaluation of sweetness compared with pure (R)-phyllodulcin (Example 4)
Format: in vivo
Conditions: dose 5 mg/kg; panel n=20
Procedure: Two samples (samples 1 and 2) were prepared by a method according to the invention. Particularly, the leaf material was extracted two times with ethyl acetate (in an amount of 5 times of the weight of the leaf material) and wherein the precipitation was performed with ethanol at 10° C. Furthermore, the solid was washed with ethanol (in an amount of 3 times of the weight of the solid) at 5° C.
Sample 3 was extracted from leaf material, however, no precipitation was performed.
The samples were then compared with the pure substance (R)-phyllodulcin with regard to their sensory evaluation.

COc1ccc([C@H]2Cc3cccc(O)c3C(=O)O2)cc1O [(R)-phyllodulcin, (3R)-8-Hydroxy-3-(3-hydroxy-4-methoxyphenyl)-3,4-dihydro-1 H-isochromen-1-one]
Sweetness: 27.0%

Reference: patent US20240407385A1, “HIGH PURITY PHYLLODULCIN EXTRACT” (SYMRISE AG, priority 2021, published 2024)
